Assay results reported in paper PMC3384541 (Cancer discovery, 2012).

Assays:
panel of 433 kinases = assay: KinomeScan kinase selectivity profile; assay type: binding; conditions: 10 µM
[1] = tested on: panel of 422 cancer cell lines; assay: High-throughput cell viability assay; assay type: cell-based, human; conditions: threshold EC50 < 5 µM, 72 h treatment
[2] = tested on: HCC70, MDA-MB-468, BT549 and PC3 cell lines; assay: Western blot of AKT phosphorylation in PTEN-null cancer cell lines; assay type: cell-based, human
HMEC-CA-p110β = assay: BacMam-enabled LanthaScreen cellular assay; assay type: cell-based; conditions: Homo sapiens, read-out: IC50 in cell culture
In vivo pharmacokinetics = assay: In vivo pharmacokinetics; design: species or system mice
Rat1-CA-p110β tumors [3] = assay: In vivo pharmacodynamics, pAKT in tumor lysates; design: species or system mice; conditions: 1 hour after single IP injection 10 mg/kg
Rat1-CA-p110α tumors [4] = assay: In vivo pharmacodynamics, pAKT in tumor lysates; design: species or system mice; conditions: after single IP injection 10 mg/kg
Rat1-CA-p110β tumors [5] = assay: Xenograft tumor growth; assay type: in vivo, mice; conditions: IP 20 mg/kg once or twice daily
Rat1-CA-p110α tumors [6] = assay: Xenograft tumor growth; assay type: in vivo, mice; conditions: IP 20 mg/kg once or twice daily
HCC70 tumors = assay: Xenograft tumor growth; assay type: in vivo, mice; conditions: PTEN-deficient; IP, 20 mg/kg, BID
PC3 tumors = assay: Xenograft tumor growth; assay type: in vivo, mice; conditions: PTEN-deficient; IP, 20 mg/kg, BID
HCC1954 tumors = assay: Xenograft tumor growth; assay type: in vivo, mice; conditions: PTEN wild-type
[7] = tested on: HMEC-CA-p110α, HMEC-CA-p110β, HMEC-CA-p110δ; assay type: cell-based, human; conditions: isogenic HMEC-CA-p110 lines, serum-free, western blot
[8] = single IP injection 10 mg/kg, tumor-bearing mice

## Cc1cc([C@@H](C)Nc2ccccc2C(=O)O)c2nc(N3CCOCC3)cc(=O)n2c1 [KIN-193, (−)2-[1-(7-Me-2-(morpholin-4-yl)-4-oxo-4H-pyrido[1,2-a]pyrimidin-9-yl)ethylamino]benzoic acid]
Panel of 433 kinases
  inhibitor-kinase interaction profile: highly selective in its interaction with PI3Ks
[1]; 20 out of 57 lines
  cell lines with PTEN mutations sensitive to compound: 35%
[1]; 58 out of 365 lines
  cell lines with wild-type PTEN sensitive to compound: 16%
[2]
  effect on AKT phosphorylation: significantly inhibited AKT phosphorylation
HMEC-CA-p110β
  IC50: 100 to 500 nM
In vivo pharmacokinetics; Mus musculus, read-out: IC50 / level reached in vivo
  IC50: ≤ 1000 nM
In vivo pharmacokinetics; mice
  optimal route for robust in vivo exposure: intraperitoneal (IP) delivery to be the optimal route
In vivo pharmacokinetics; single IP injection 10 mg/kg
  concentrations in CA-p110α- and CA-p110β-driven tumors: paralleled the plasma concentrations
In vivo pharmacokinetics; [8]
  time by which plasma concentration declined to undetectable levels: ≤ 4 h
  time of highest plasma concentration: 1 h
Rat1-CA-p110β tumors [3]
  phosphorylation of AKT in tumor lysates: significantly reduced
Rat1-CA-p110α tumors [4]
  phosphorylation of AKT in tumor lysates: remained unchanged
Rat1-CA-p110β tumors [5]
  tumor growth: significantly impaired
Rat1-CA-p110α tumors [6]
  tumor growth: little effect
HCC70 tumors
  tumor growth: significantly inhibited tumor growth
PC3 tumors
  tumor growth: significantly inhibited tumor growth
HCC1954 tumors; IP, 20 mg/kg, BID
  tumor growth: failed to block the growth

## Cc1cc(C(C)Nc2ccccc2)c2nc(N3CCOCC3)cc(=O)n2c1 (centres unmarked) [TGX-221]
[7]
  inhibition of phosphorylation of AKT at Thr308 and Ser473: in a dose-dependent manner

## Cc1ccc([N+](=O)[O-])cc1S(=O)(=O)N(C)/N=C/c1cnc2ccc(Br)cn12 [PIK-75]
[2]
  effect on AKT phosphorylation: had much less effect
[7]
  inhibition of phosphorylation of AKT at Thr308 and Ser473: in a dose-dependent manner

## Cc1ccccc1-n1c(Cn2cnc3c(N)ncnc32)nc2cccc(C)c2c1=O [IC87114]
[2]
  effect on AKT phosphorylation: had much less effect
[7]
  inhibition of phosphorylation of AKT at Thr308 and Ser473: in a dose-dependent manner

## CS(=O)(=O)N1CCN(Cc2cc3nc(-c4cccc5[nH]ncc45)nc(N4CCOCC4)c3s2)CC1 [GDC-0941, reference compound]
HCC1954 tumors; PO, 150 mg/kg, QD
  tumor growth: responded to treatment
